Experimental data: the supplement of paper PMC10307832

Assays:
Assay in all cases: relative viability (nuclei count vs DMSO), 5 days (fraction); higher = more cells survive
EMC-BAC-2 = test system: EMC-BAC-2
How it was run: (§1)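 Lung cancer cell lines were seeded in 1536-well plates and dosed by pin tool the next day, with either a single drug or a fixed anchor-drug dose combined with five library-drug doses (not always all listed) spaced in √10 steps. Five days later, one step fixed the cells and stained their nuclei (final 0.05% Triton X-100, 1% formaldehyde, 1 ug/ml Hoechst), and nuclei were counted on 4× images. Relative viability is the nuclei count in treated wells divided by the count in vehicle wells, and each value is the median of duplicate plates.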

HCC-366 = test system: HCC-366
How it was run: as §1

NCI-H2170 = test system: NCI-H2170
How it was run: as §1

PC-3 [JPC-3] = test system: PC-3 [JPC-3]
How it was run: as §1

SK-MES-1 = test system: SK-MES-1
How it was run: as §1

NCI-H23 = test system: NCI-H23
How it was run: as §1

COR-L 105 = test system: COR-L 105
How it was run: as §1

NCI-H596 = test system: NCI-H596
How it was run: as §1

H3255 = test system: H3255
How it was run: as §1

NCI-H1975 = test system: NCI-H1975
How it was run: as §1

A-427 = test system: A-427
How it was run: as §1

SMILES: Nc1ccn([C@@H]2O[C@H](CO)[C@@H](O)[C@@H]2O)c(=O)n1 [Cytarabine] + CS(=O)(=O)N1CCN(Cc2cc3nc(-c4cccc5[nH]ncc45)nc(N4CCOCC4)c3s2)CC1 [Pictilisib] (partner 1 µM)
- relative viability (EMC-BAC-2; first compound 0.005 µM): 0.42
- relative viability (EMC-BAC-2; first compound 0.01581 µM): 0.494
- relative viability (EMC-BAC-2; first compound 0.05 µM): 0.366
- relative viability (EMC-BAC-2; first compound 0.1581 µM): 0.246
- relative viability (EMC-BAC-2; first compound 0.5 µM): 0.165
- relative viability (HCC-366; first compound 0.005 µM): 0.134
- relative viability (HCC-366; first compound 0.01581 µM): 0.129
- relative viability (HCC-366; first compound 0.05 µM): 0.0867
- relative viability (HCC-366; first compound 0.1581 µM): 0.0754
- relative viability (HCC-366; first compound 0.5 µM): 0.0688
- relative viability (NCI-H2170; first compound 0.01581 µM): 0.257
- relative viability (NCI-H2170; first compound 0.05 µM): 0.235
- relative viability (NCI-H2170; first compound 0.1581 µM): 0.191
- relative viability (NCI-H2170; first compound 0.5 µM): 0.192
- relative viability (PC-3 [JPC-3]; first compound 0.005 µM): 0.695
- relative viability (PC-3 [JPC-3]; first compound 0.01581 µM): 0.673
- relative viability (PC-3 [JPC-3]; first compound 0.05 µM): 0.647
- relative viability (PC-3 [JPC-3]; first compound 0.1581 µM): 0.448
- relative viability (PC-3 [JPC-3]; first compound 0.5 µM): 0.479
- relative viability (SK-MES-1; first compound 0.005 µM): 0.333
- relative viability (SK-MES-1; first compound 0.01581 µM): 0.305
- relative viability (SK-MES-1; first compound 0.05 µM): 0.227
- relative viability (SK-MES-1; first compound 0.1581 µM): 0.194
- relative viability (SK-MES-1; first compound 0.5 µM): 0.205
- relative viability (NCI-H23; first compound 0.005 µM): 0.527
- relative viability (NCI-H23; first compound 0.01581 µM): 0.346
- relative viability (NCI-H23; first compound 0.05 µM): 0.327
- relative viability (NCI-H23; first compound 0.1581 µM): 0.156
- relative viability (NCI-H23; first compound 0.5 µM): 0.138
- relative viability (COR-L 105; first compound 0.005 µM): 0.32
- relative viability (COR-L 105; first compound 0.01581 µM): 0.361
- relative viability (COR-L 105; first compound 0.05 µM): 0.312
- relative viability (COR-L 105; first compound 0.1581 µM): 0.311
- relative viability (COR-L 105; first compound 0.5 µM): 0.242
- relative viability (NCI-H596; first compound 0.005 µM): 0.432
- relative viability (NCI-H596; first compound 0.01581 µM): 0.396
- relative viability (NCI-H596; first compound 0.05 µM): 0.355
- relative viability (NCI-H596; first compound 0.1581 µM): 0.277
- relative viability (NCI-H596; first compound 0.5 µM): 0.315
- relative viability (H3255; first compound 0.005 µM): 0.438
- relative viability (H3255; first compound 0.01581 µM): 0.446
- relative viability (H3255; first compound 0.05 µM): 0.403
- relative viability (H3255; first compound 0.1581 µM): 0.294
- relative viability (H3255; first compound 0.5 µM): 0.303
- relative viability (NCI-H1975; first compound 0.005 µM): 0.271
- relative viability (NCI-H1975; first compound 0.01581 µM): 0.281
- relative viability (NCI-H1975; first compound 0.05 µM): 0.311
- relative viability (NCI-H1975; first compound 0.1581 µM): 0.289
- relative viability (NCI-H1975; first compound 0.5 µM): 0.195
- relative viability (A-427; first compound 0.005 µM): 0.576
- relative viability (A-427; first compound 0.01581 µM): 0.419
- relative viability (A-427; first compound 0.05 µM): 0.314
